Marks after values point to notes of the source that are not given here.
Test system: red blood cells
Assay: Gel card agglutination with rabbit anti-acridine sera
Format: cell-based
Procedure: The reduction in modification of red blood cells in the methods of the present invention can be evaluated by several assays. In one assay, rabbit polyclonal sera that is reactive with acridine is produced by injecting New Zealand White rabbits with an acridine compound conjugated to KLH.
This is conjugated to KLH by adding 10 μL of the compound (10 mM in de-ionized water) to 990 μL of a buffered solution of KLH (10 mg/mL in 50 mM Phosphate, 150 mM NaCl, PBS pH=7.2 with proprietary stabilizer, Pierce Cat # 77600) and incubating at room temperature for over 20 hours. Following this incubaton, the conjugated KLH is isolated from the unreacted S-197 and S-197 by-products by passing through a desalting column (e.g. D-salt columns, Pierce) and eluting in PBS buffer. The colored fractions of the solutions are then combined and the KLH conjugates are characterized by the ratio of absorbance at 210 and 410 nm. The acridine-KLH conjugate solutions are mixed with Complete Freund's Adjuvant for intramuscular injection into the rabbits at multiple sites to immunize the rabbits. […] The resulting solution can be assayed for agglutination by passing through a Buffer Gel Card (Micro Typing Systems, Pompano Beach, Fla.). The gel cards are designed to allow non-agglutinated red blood cells to pass through, while cells agglutinated by reaction with the rabbit sera and cross reacting with the anti-rabbit antibody will remain at the top of the gel. The cards are scored as 0, 1+, 2+, 3+, or 4+, where 0 indicates all cells are intact and are at the bottom of the gel, while 4+ indicates complete agglutination, with all cells at the top of the gel.
In these, the appropriate amount of 600 mM stock was added, mixed with an appropriate volume of 8% dextrose to provide the same volume addition to each RBC sample where in one study, with varied glutathione concentrations, the pH was measured after adding glutathione and after adding PIC-1. […] Similar samples were also assessed for the inactivation of S. epidermidis. […] For gel card analysis, after incubation, the RBC were washed in BBS and were diluted in BBS to a final hematocrit of 4%. A 25 μL aliquot of each was mixed with 15 μL of rabbit polyclonal anti-acridine sera diluted either 1:4 or 1:100 in BBS and the mixture was incubated at 37° C. for 30 minutes. The cells were subsequently washed with 1.5 mL BBS. […]
Heterophile antibodies are naturally occurring antibodies that recognize RBC from another species in a non-specific fashion. […] All samples were mixed with quencher first, then PIC-1 at 0.2 mM.
The standard condition was included, i.e. 0.2 mM PIC-1 and 2 mM acidic glutathione added together.

Compound: O=C(CCNc1c2ccccc2nc2ccccc12)OCCN(CCCl)CCCl [PIC-1]
- Gel card score (Table 11A samples, rabbit sera 1:4, all samples): 4+
- Gel card score (Table 11B: 2 mM GSH, 1 eq. base, 0.2 mM PIC-1, sera 1:100, secondary 1:4): 4+
- Gel card score (Table 11B: 2 mM GSH, 2 eq. base, 0.2 mM PIC-1, sera 1:100, secondary 1:4): 3+
- Gel card score (Table 11B: 2 mM GSH, no added base, 0.2 mM PIC-1, sera 1:100, secondary 1:4): 3+
- Gel card score (Table 11B: 5 mM GSH, 1 eq. base, 0.2 mM PIC-1, sera 1:100, secondary 1:4): 3+
- Gel card score (Table 11B: 5 mM GSH, 2 eq. base, 0.2 mM PIC-1, sera 1:100, secondary 1:4): 2+
- Gel card score (Table 11B: 5 mM GSH, no added base, 0.2 mM PIC-1, sera 1:100, secondary 1:4): 3+/MX*
- Gel card score (Table 11B: 10 mM GSH, 1 eq. base, 0.2 mM PIC-1, sera 1:100, secondary 1:4): 2+
- Gel card score (Table 11B: 10 mM GSH, 2 eq. base, 0.2 mM PIC-1, sera 1:100, secondary 1:4): 1+
- Gel card score (Table 11B: 10 mM GSH, no added base, 0.2 mM PIC-1, sera 1:100, secondary 1:4): 3+/MX*
- Gel card score (Table 11B: 20 mM GSH, 1 eq. base, 0.2 mM PIC-1, sera 1:100, secondary 1:4): 1+
- Gel card score (Table 11B: 20 mM GSH, 2 eq. base, 0.2 mM PIC-1, sera 1:100, secondary 1:4): 0
- Gel card score (Table 11B: 20 mM GSH, no added base, 0.2 mM PIC-1, sera 1:100, secondary 1:4): 3+
- Gel card score (Table 12: 2 mM acidic GSH, 0.2 mM PIC-1, sera 1:4, no secondary Ab): 3+
- Gel card score (Table 12: 2 mM acidic GSH, 0.2 mM PIC-1, sera 1:4, secondary Ab 1:4): 4+
- Gel card score (Table 12: 2 mM acidic GSH, 0.2 mM PIC-1, sera 1:100, no secondary Ab): 0
- Gel card score (Table 12: 2 mM acidic GSH, 0.2 mM PIC-1, sera 1:100, secondary Ab 1:4): 4
- Gel card score (Table 12: 5 mM Cys 1eq, 0.2 mM PIC-1, sera 1:4, no secondary Ab): 1+
- Gel card score (Table 12: 5 mM Cys 1eq, 0.2 mM PIC-1, sera 1:4, secondary Ab 1:4): 4+
- Gel card score (Table 12: 5 mM Cys 1eq, 0.2 mM PIC-1, sera 1:100, no secondary Ab): 0
- Gel card score (Table 12: 5 mM Cys 1eq, 0.2 mM PIC-1, sera 1:100, secondary Ab 1:4): 1*
- Gel card score (Table 12: 10 mM Cys 1eq, 0.2 mM PIC-1, sera 1:4, no secondary Ab): 0
- Gel card score (Table 12: 10 mM Cys 1eq, 0.2 mM PIC-1, sera 1:4, secondary Ab 1:4): 3+
- Gel card score (Table 12: 10 mM Cys 1eq, 0.2 mM PIC-1, sera 1:100, no secondary Ab): 0
- Gel card score (Table 12: 10 mM Cys 1eq, 0.2 mM PIC-1, sera 1:100, secondary Ab 1:4): 0
- Gel card score (Table 12: 15 mM Cys 1eq, 0.2 mM PIC-1, sera 1:4, no secondary Ab): 0
- Gel card score (Table 12: 15 mM Cys 1eq, 0.2 mM PIC-1, sera 1:4, secondary Ab 1:4): 1*
- Gel card score (Table 12: 15 mM Cys 1eq, 0.2 mM PIC-1, sera 1:100, no secondary Ab): 0
- Gel card score (Table 12: 15 mM Cys 1eq, 0.2 mM PIC-1, sera 1:100, secondary Ab 1:4): 0
- Gel card score (Table 12: 20 mM Cys 1eq, 0.2 mM PIC-1, sera 1:4, no secondary Ab): 0
- Gel card score (Table 12: 20 mM Cys 1eq, 0.2 mM PIC-1, sera 1:4, secondary Ab 1:4): 0
- Gel card score (Table 12: 20 mM Cys 1eq, 0.2 mM PIC-1, sera 1:100, no secondary Ab): 0
- Gel card score (Table 12: 20 mM Cys 1eq, 0.2 mM PIC-1, sera 1:100, secondary Ab 1:4): 0
- Gel card score (Table 12: 20 mM GSH 2eq, 0.2 mM PIC-1, sera 1:4, no secondary Ab): 0
- Gel card score (Table 12: 20 mM GSH 2eq, 0.2 mM PIC-1, sera 1:4, secondary Ab 1:4): 3+
- Gel card score (Table 12: 20 mM GSH 2eq, 0.2 mM PIC-1, sera 1:100, no secondary Ab): 0
- Gel card score (Table 12: 20 mM GSH 2eq, 0.2 mM PIC-1, sera 1:100, secondary Ab 1:4): 0
- Gel card score (Table 12: […] Cys 1eq, 0.2 mM PIC-1, sera 1:4, no secondary Ab): 2+
- Gel card score (Table 12: […] Cys 1eq, 0.2 mM PIC-1, sera 1:4, secondary Ab 1:4): 4+
- Gel card score (Table 12: […] Cys 1eq, 0.2 mM PIC-1, sera 1:100, no secondary Ab): 0
- Gel card score (Table 12: […] Cys 1eq, 0.2 mM PIC-1, sera 1:100, secondary Ab 1:4): 3
- Gel card score (Table 13: 0.2 mM PIC-1 no quencher, blood sample 1, sera 1:4): 4+
- Gel card score (Table 13: 0.2 mM PIC-1 no quencher, blood sample 1, sera 1:100): 4+
- Gel card score (Table 13: 0.2 mM PIC-1 no quencher, blood sample 2, sera 1:4): 4+
- Gel card score (Table 13: 0.2 mM PIC-1 no quencher, blood sample 2, sera 1:100): 4+
- Gel card score (Table 13: 2 mM acidic GSH, 0.2 mM PIC-1, blood sample 1, sera 1:4): 4+
- Gel card score (Table 13: 2 mM acidic GSH, 0.2 mM PIC-1, blood sample 1, sera 1:100): 4+
- Gel card score (Table 13: 2 mM acidic GSH, 0.2 mM PIC-1, blood sample 2, sera 1:4): 4+
- Gel card score (Table 13: 2 mM acidic GSH, 0.2 mM PIC-1, blood sample 2, sera 1:100): 4+
- Gel card score (Table 13: 5 mM GSH 2eq/15 mM Cys 1eq, 0.2 mM PIC-1, blood sample 1, sera 1:4): 2
